From patent US11415579B2, “Assay for measuring a rate of reaction between a target and a ligand candidate” (Imperial College Innovations Ltd., priority 2016, dated 2022)

Legend:
[1] = Kinetic thiol consumption assay with model thiol glutathione; format: physicochemical; design: Rate constant with glutathione (k(GSH)): unit not given here; settings: for Rate constant with glutathione (k(GSH)): 500 μM ligand, 5 μM thiol, phosphate buffer pH 8; for Rate constant with Glutathione: Protein: Glutathione, cysteine position NA, in h-1
How it was run: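 Rate constants for acrylamide reaction with 5 μM glutathione come from first-order exponential fits of normalized fluorescence decay (ex 380, em 470 nm). Reactions run in degassed phosphate buffer at pH 8 containing TCEP beads, room temperature.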

[2] = target: T1, human cyclin-dependent kinase 2 (Cdk2) (Homo sapiens, UniProt P24941); test: Kinetic thiol consumption assay with wild type Cdk2 (C177); format: binding; design: key to Rate enhancement, Cdk2 WT: k(Cdk2) divided by k(model thiol); Rate constant with Cdk2 (k(Cdk2)): unit not given here; settings: for Rate constant with Cdk2 (k(Cdk2)): 500 μM ligand, 5 μM thiol, phosphate buffer pH 8; for Rate enhancement, Cdk2 WT: no additional mutations; for Rate constant with Cdk2 WT: Protein: Cdk2, cysteine position WT, in h^-1; for k(Cdk2)/k(Cdk2_mut) rate enhancement: model thiol Cdk2[C177A, F80C, K278C]; for k(Cdk2)/k(GSH) rate enhancement: model thiol glutathione
T1 construct: poly-histidine; made in house; host or cells: E. coli
How it was run: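 Rate enhancement: first-order decay constant with Cdk2 over that with a model thiol. Thiols (5 μM, degassed phosphate buffer pH 8, immobilized TCEP) were incubated with acrylamides at room temperature, and thiol consumption followed by fluorescence at 380/470 nm, normalized to DMSO control. Cdk2 was His-tagged, E. coli-expressed, with one surface cysteine (C177).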

Cdk2(C177A, F80C) = target: T2, Cdk2(C177A, F80C) (Homo sapiens, UniProt P24941, C177A/F80C); test: Kinetic thiol consumption assay with Cdk2 mutant F80C, incl. kobs versus concentration (Kd, k2); format: binding; design: key to Rate enhancement, Cdk2 F80C: Cdk2 rate constant divided by model-thiol rate constant; settings: additional mutation C177A; for Rate constant with Cdk2 F80C: Protein: Cdk2, cysteine position F80C, in h^-1
T2 construct: poly-histidine; made in house; host or cells: E. coli
How it was run: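 His-tagged Cdk2(C177A/F80C) from E. coli or model thiol, 5 μM in degassed phosphate buffer pH 8 with TCEP beads, reacted with acrylamide ligands; fluorescence (ex/em 380/470 nm) normalized to DMSO control and fitted to first-order decay for kobs. Kd and k2 obtained from hyperbolic fit of kobs versus ligand concentration.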

Cdk2(H71C) (C177A) = target: T3, Cdk2(H71C) (C177A) (Homo sapiens, UniProt P24941, C177A/H71C); test: Kinetic thiol consumption assay with Cdk2 mutant H71C; format: binding; design: key to Rate enhancement, Cdk2 H71C: rate constant with Cdk2 ÷ rate constant with model thiol (fold); settings: additional mutation C177A; for Rate constant with Cdk2 H71C: Protein: Cdk2, cysteine position H71C, in h^-1
T3 construct: poly-histidine; made in house; host or cells: E. coli
How it was run: (§1)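 His-tagged single-surface-cysteine Cdk2 mutants (C177A background) from E. coli, 5 μM in degassed phosphate buffer pH 8, pre-treated with immobilized TCEP beads. Fluorescence (ex/em 380/470 nm) read after 1 h at room temperature, normalized to DMSO/thiol-only control; first-order decay fits gave rate constants, divided by model-thiol rate for rate enhancement.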

Cdk2(S276C) (C177A) = target: T4, Cdk2(S276C) (C177A) (Homo sapiens, UniProt P24941, C177A/S276C); test: Kinetic thiol consumption assay with Cdk2 mutant S276C; format: binding; design: key to Rate enhancement, Cdk2 S276C: rate constant with Cdk2 ÷ rate constant with model thiol (fold); settings: additional mutation C177A; for Rate constant with Cdk2 S276C: Protein: Cdk2, cysteine position S276C, in h^-1
T4 construct: poly-histidine; made in house; host or cells: E. coli
How it was run: as §1

Cdk2(S181C) (C177A) = target: T5, Cdk2(S181C) (C177A) (Homo sapiens, UniProt P24941, C177A/S181C); test: Kinetic thiol consumption assay with Cdk2 mutant S181C; format: binding; design: key to Rate enhancement, Cdk2 S181C: rate constant with Cdk2 ÷ rate constant with model thiol (fold); settings: additional mutation C177A; for Rate constant with Cdk2 S181C: Protein: Cdk2, cysteine position S181C, in h^-1
T5 construct: poly-histidine; made in house; host or cells: E. coli
How it was run: as §1

Cdk2(N272C) (C177A) = target: T6, Cdk2(N272C) (C177A) (Homo sapiens, UniProt P24941, C177A/N272C); test: Kinetic thiol consumption assay with Cdk2 mutant N272C; format: binding; design: key to Rate enhancement, Cdk2 N272: rate constant with Cdk2 ÷ rate constant with model thiol (fold); settings: for Rate enhancement, Cdk2 N272: Cdk2 N272, additional mutation C177A; for Rate constant with Cdk2 N272C: Protein: Cdk2, cysteine position N272C, additional mutation C177A, in h^-1
T6 construct: poly-histidine; made in house; host or cells: E. coli
How it was run: as §1

Cdk2[C177A, F80C, K278C] = target: T7, Cdk2[C177A, F80C, K278C] (Homo sapiens, UniProt P24941, C177A/F80C/K278C); test: Kinetic thiol consumption assay with mutant Cdk2 as model thiol; format: binding; design: unit not given here; settings: 500 μM ligand, 5 μM thiol, phosphate buffer pH 8
T7 construct: poly-histidine; made in house; host or cells: E. coli
Method: A library of 120 acrylamides was screened against a) human cyclin-dependent kinase 2 (Cdk2, which contains one surface exposed cysteine residue—C177), prepared by cloning cDNA into the pRSETA bacterial expression vector to generate a poly-histidine tagged Cdk2 fusion that was purified from E. coli using standard techniques, and b) a model thiol (specific details are given below). The structures of these 120 acrylamides are set out in Table 1, above.
To wells containing 150 μL thiol (Cdk2 or model thiol) (5 μM) in degassed phosphate buffer (pH 8) was added immobilized TCEP beads (2% v/v).
After incubation of the fluorescence plates for 1 hour at room temperature, fluorescence measurements (excitation/emission of 380/470 nm) were taken on a PerkinElmer EnVision multilabel plate reader and processed with EnVision Workstation version 1.12.
Fluorescence measurements were normalized against a DMSO/thiol only control and plotted against time.
Rate constants were calculated using GraphPad software Prism version 6 by fitting a first order exponential decay to the data. The rate constant for each acrylamide with Cdk2 was divided by the rate constant for that fragment with the model thiol to provide the rate enhancement for each ligand candidate.
The model thiol used in Example 2 is a mutant form of human Cdk2 (C177A, F80C, K278C) which contains two engineered surface exposed cysteine residues. Mutations were introduced by site-directed mutagenesis and the resulting cDNA was cloned into the pRSETA bacterial expression vector to generate a poly-histidine tagged Cdk2 fusion that was purified from E. coli using standard techniques.

Cdk2(T182C) (C177A) = target: T8, Cdk2(T182C) (C177A) (Homo sapiens, UniProt P24941, C177A/T182C); test: Kinetic thiol consumption assay with Cdk2 mutant T182C; format: binding; design: key to Rate enhancement, Cdk2 T182C: rate constant with Cdk2 ÷ rate constant with model thiol (fold); settings: additional mutation C177A; for Rate constant with Cdk2 T182C: Protein: Cdk2, cysteine position T182C, in h^-1
T8 construct: poly-histidine; made in house; host or cells: E. coli
How it was run: as §1

Cdk2(R122C) (C177A) = target: T9, Cdk2(R122C) (C177A) (Homo sapiens, UniProt P24941, C177A/R122C); test: Kinetic thiol consumption assay with Cdk2 mutant R122C; format: binding; design: key to Rate enhancement, Cdk2 R122C: rate constant with Cdk2 ÷ rate constant with model thiol (fold); settings: additional mutation C177A; for Rate constant with Cdk2 R122C: Protein: Cdk2, cysteine position R122C, in h-1
T9 construct: poly-histidine; made in house; host or cells: E. coli
How it was run: as §1

Compound | Rate constant with glutathione (k(GSH)) [1] | Rate constant with Glutathione [1] | Rate constant with Cdk2 (k(Cdk2)) [2] | Rate enhancement, Cdk2 WT [2] | Rate constant with Cdk2 WT [2] | k(Cdk2)/k(Cdk2_mut) rate enhancement [2] | k(Cdk2)/k(GSH) rate enhancement [2] | Rate enhancement, Cdk2 F80C (Cdk2(C177A, F80C)) | Rate constant with Cdk2 F80C (Cdk2(C177A, F80C)) | Rate enhancement, Cdk2 H71C (Cdk2(H71C) (C177A)) | Rate constant with Cdk2 H71C (Cdk2(H71C) (C177A)) | Rate enhancement, Cdk2 S276C (Cdk2(S276C) (C177A)) | Rate enhancement, Cdk2 S181C (Cdk2(S181C) (C177A)) | Rate constant with Cdk2 S181C (Cdk2(S181C) (C177A)) | Rate enhancement, Cdk2 N272 (Cdk2(N272C) (C177A)) | Rate constant with Cdk2 N272C (Cdk2(N272C) (C177A)) | Rate constant with Cdk2[C177A, F80C, K278C] (k(Cdk2_mut)) (Cdk2[C177A, F80C, K278C]) | Rate enhancement, Cdk2 T182C (Cdk2(T182C) (C177A)) | Rate constant with Cdk2 T182C (Cdk2(T182C) (C177A)) | Rate enhancement, Cdk2 R122C (Cdk2(R122C) (C177A)) | also measured
C=CC(=O)NCc1ccc(-c2csnn2)cc1 [BN-66] | 0.0016 | 0.001496 | 0.00089 | 0.9753 | 0.001459 | 0.2541 | 0.5565 | 2.336 | 0.003494 | 0.7553 | 0.00113 | 0 | 0.8476 | 0.001268 | 1.553 | 0.002323 | 0.0035 | 3.479 | 0.005204 | 0 | –
C=CC(=O)NC1CCN(Cc2ccccc2)CC1 [BN-78] | 0.00403 | 0.007274 | 0.00116 | 0.1591 | 0.001157 | 0.5905 | 0.2873 | 0.2437 | 0.001773 | 0 | – | 0.1622 | 0.09002 | 0.0006548 | 0.5049 | 0.003673 | 0.00196 | 0.1316 | 0.0009576 | 0.2392 | Rate constant with Cdk2 S276C (Cdk2(S276C) (C177A)): 0.00118; Rate constant with Cdk2 R122C (Cdk2(R122C) (C177A)): 0.00174
C=CC(=O)Nc1cccc(C(F)(F)F)c1 [BN-80] | 0.02984 | 0.02983 | 0.0419 | 1.405 | 0.0419 | 0.3263 | 1.404 | 1.308 | 0.03902 | 0.1247 | 0.003721 | 0.6024 | 0.4626 | 0.0138 | 0.2072 | 0.006181 | 0.1284 | 4.026 | 0.1201 | 0.5528 | Rate constant with Cdk2 S276C (Cdk2(S276C) (C177A)): 0.01797; Rate constant with Cdk2 R122C (Cdk2(R122C) (C177A)): 0.01649
C=CC(=O)NCCN1CCOCC1 [BN-346] | 0.00299 | 0.004652 | 0.00428 | 1.185 | 0.005514 | 2.921 | 1.429 | 0.189 | 0.0008792 | 0.09555 | 0.0004445 | 0.2004 | 0.233 | 0.001084 | 0.4286 | 0.001994 | 0.00146 | 0.1853 | 0.000862 | 0 | Rate constant with Cdk2 S276C (Cdk2(S276C) (C177A)): 0.0009323
